Values of other authors as cited in patent US6346634B1, “Chemical compound containing a superoxide scavenger and an organic nitrate or nitrite moiety” (Teijin Limited, priority 1999, dated 2002).

Target: XO (Homo sapiens, UniProt P47989)
Sequence (P47989 whole entry): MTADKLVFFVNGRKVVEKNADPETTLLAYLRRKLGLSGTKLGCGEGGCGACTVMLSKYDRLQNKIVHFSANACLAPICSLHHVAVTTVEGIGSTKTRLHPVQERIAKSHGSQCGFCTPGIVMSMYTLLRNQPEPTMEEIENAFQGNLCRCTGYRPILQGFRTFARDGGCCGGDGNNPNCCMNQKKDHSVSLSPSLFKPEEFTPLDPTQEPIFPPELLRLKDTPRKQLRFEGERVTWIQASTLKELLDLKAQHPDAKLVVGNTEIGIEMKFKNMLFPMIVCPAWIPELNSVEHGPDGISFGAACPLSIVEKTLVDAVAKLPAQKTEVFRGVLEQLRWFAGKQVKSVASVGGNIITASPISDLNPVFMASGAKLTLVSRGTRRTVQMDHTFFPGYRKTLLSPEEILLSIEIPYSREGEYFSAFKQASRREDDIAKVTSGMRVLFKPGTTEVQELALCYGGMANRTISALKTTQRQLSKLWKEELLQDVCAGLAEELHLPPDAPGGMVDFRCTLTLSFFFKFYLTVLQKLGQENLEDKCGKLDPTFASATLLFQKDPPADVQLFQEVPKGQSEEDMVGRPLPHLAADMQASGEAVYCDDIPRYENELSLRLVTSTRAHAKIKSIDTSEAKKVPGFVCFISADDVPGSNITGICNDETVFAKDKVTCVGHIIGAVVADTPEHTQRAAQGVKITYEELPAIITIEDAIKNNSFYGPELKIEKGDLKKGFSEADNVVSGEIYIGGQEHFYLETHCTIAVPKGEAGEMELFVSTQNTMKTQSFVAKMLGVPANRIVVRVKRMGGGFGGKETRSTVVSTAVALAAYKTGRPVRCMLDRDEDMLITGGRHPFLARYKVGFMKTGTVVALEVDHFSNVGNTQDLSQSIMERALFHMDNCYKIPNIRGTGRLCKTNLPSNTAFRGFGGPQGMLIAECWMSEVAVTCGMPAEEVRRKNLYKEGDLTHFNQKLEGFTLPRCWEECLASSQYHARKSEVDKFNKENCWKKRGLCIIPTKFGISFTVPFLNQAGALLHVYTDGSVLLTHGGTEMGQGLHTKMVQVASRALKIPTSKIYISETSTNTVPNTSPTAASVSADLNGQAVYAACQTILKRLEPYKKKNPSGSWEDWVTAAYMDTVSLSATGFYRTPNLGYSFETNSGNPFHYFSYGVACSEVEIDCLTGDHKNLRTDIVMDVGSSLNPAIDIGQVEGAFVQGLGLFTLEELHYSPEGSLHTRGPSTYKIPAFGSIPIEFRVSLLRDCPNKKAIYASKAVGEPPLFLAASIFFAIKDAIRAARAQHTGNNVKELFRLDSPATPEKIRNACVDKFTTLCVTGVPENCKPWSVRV
Details: inhibition of superoxide-generating NADH oxidase activity
In the case of `Nc1c(-c2cccc(C(F)(F)F)c2)nsc1C(=O)O` [Amfiutizole], the “NADH-oxidizing activity of XO” value is listed as “not suppressible”.
In the case of `COc1cc(-c2cnn3c(=O)nc[n-]c23)ccc1[S+]([O-])c1ccccc1.[Na+]` (centres unmarked) [BOF-4272], the “NADH-oxidizing activity of XO” value is given as “not suppressible”.
For `Oc1ncnc2[nH]ncc12` [allopurinol], the “NADH-oxidizing activity of XO” value is given as “not suppressible”.
In the case of `c1ccc2c(c1)[I+]c1ccccc1-2` [diphenyleneiodonium], the “NADH-oxidizing activity of XO” value is listed as “blocked”.
In the case of `O=c1[nH]c(=O)c2c[nH]nc2[nH]1` [oxypurinol], the “NADH-oxidizing activity of XO” value is listed as “not suppressible”.
